Patent US20020183313A1, “1,4-benzodiazepinones and their uses as CCK antagonists” (Fujisawa Pharmaceutical Co., Ltd., priority 1996, published 2002)

Structure (SMILES) | melting point
Cc1cccc2c1N(CC(=O)c1ccccc1OCC(=O)O)C(=O)C(NC(=O)Nc1cccc(-c3nnn[nH]3)c1)N=C2c1ccccc1F (racemic) | 109.6 to 113 °C
Cc1cccc2c1N(CC(=O)N1CC3CCC(CC3)C1)C(=O)C(NC(=O)Nc1cccc(C=O)c1)N=C2c1ccccc1F (racemic) | 236.8 to 242.1 °C
Cc1cccc2c1N(CC(=O)N1CC3CCC(CC3)C1)C(=O)C(NC(=O)Nc1cccc(C=NO)c1)N=C2c1ccccc1F (racemic) | 196 to 199 °C
Cc1cccc2c1N(CC(=O)N1CC3CCC(CC3)C1)CC(NC(=O)Nc1cccc(Br)c1)N=C2c1ccccc1F (racemic) | > 250 °C
Cc1cccc(NC(=O)NC2N=C(C3CCCCC3)c3cccc(C)c3N(C)C2=O)c1 (racemic) | 196.4 to 197.5 °C
Cc1ccccc1C(=O)CN1C(=O)C(NC(=O)Nc2cccc(-c3nnn[nH]3)c2)N=C(c2ccccc2F)c2cccc(C)c21 (racemic) | 215.8 to 220.3 °C
Cc1ccccc1C(=O)CN1C(=O)C(NC(=O)Nc2cccc(C(=O)O)c2)N=C(c2ccccc2F)c2cccc(C)c21 (racemic) | 168.1 to 176.3 °C
CC(C)c1cccc2c1N(CC(=O)N1CC3CCC(CC3)C1)C(=O)C(NC(=O)Nc1cccc(-c3nnn[nH]3)c1)N=C2c1ccccc1F (racemic) | 212.2 to 222.1 °C
Cc1cccc2c1N(CC(=O)N1CC3CCC(CC3)C1)C(=O)C(NC(=O)Nc1cccc(O)c1)N=C2c1ccccc1F (racemic) | 192.8 to 203.9 °C
CC1=NC(NC(=O)Nc2cc(C)ccn2)C(=O)N(CC(=O)N2CC3CCC(CC3)C2)c2c(C)cccc21 (racemic) | 152 to 154.1 °C
Cc1cccc2c1N(CC(=O)c1cccc([N+](=O)[O-])c1)C(=O)C(NC(=O)Nc1cccc(-c3nnn[nH]3)c1)N=C2c1ccccc1F (racemic) | 194.4 to 198.1 °C
Cc1cccc(NC(=O)NC2N=C(C(C)C)c3cccc(C)c3N(CC(=O)N3CC4CCC(CC4)C3)C2=O)c1 (racemic) | 189.9 to 192.8 °C
CC1=NC(NC(=O)Nc2cccc(Cl)c2)C(=O)N(CC(=O)N2CC3CCC(CC3)C2)c2c(C)cccc21 (racemic) | 181.2 to 185.1 °C
Cc1cccc(NC(=O)NC2N=C(CN3CC4CCC(CC4)C3)c3cccc(C)c3N(C)C2=O)c1 (racemic) | 145.6 to 149.2 °C
Cc1cccc(NC(=O)NC2N=C(C3CC3)c3cccc(C)c3N(CC(=O)N3CC4CCC(CC4)C3)C2=O)c1 (racemic) | 172 to 174.4 °C
Cc1cccc(NC(=O)NC2N=C(C3CC3)c3cccc(C)c3N(CC(=O)N3CCCCCCC3)C2=O)c1 (racemic) | 177.7 to 179.2 °C
Cc1cccc2c1N(C)C(=O)C(NC(=O)Nc1cccc(-c3nnn[nH]3)c1)N=C2C1CCCCC1 (racemic) [17(1), N-[(3RS)-5-Cyclohexyl-2,3-dihydro-1,9-dimethyl-2-oxo-1H-1,4-benzodiazepin-3-yl]-N′-[3-(tetrazol-5-yl)phenyl]urea] | 198.9 to 200.7 °C
Cc1ccccc1C(=O)CN1C(=O)C(NC(=O)Nc2cccc(-c3nnn[nH]3)c2)N=C(C2CCCCC2)c2cccc(C)c21 (racemic) [24(1), N-[(3RS)-5-Cyclohexyl-9-methyl-2,3-dihydro-1-(2-methylphenacyl)-2-oxo-1H-1,4-benzodiazepin-3-yl]-N′-[3-(tetrazol-5-yl)phenyl]urea] | 165 to 176.6 °C
Cc1ccccc1C(=O)CN1C(=O)C(NC(=O)c2cc3ccccc3[nH]2)N=C(C2CCCCC2)c2cccc(C)c21 (racemic) [24(2), (3RS)-5-Cyclohexyl-2,3-dihydro-3-(indol-2-yl)carbonylamino-9-methyl-1-(2-methylphenacyl)-1H-1,4-benzodiazepin-2-one] | 126.7 to 145.2 °C

Next, values leading:

melting point | Structure (SMILES)
115 to 120 °C | CCC1=NC(NC(=O)Nc2cccc(C)c2)C(=O)N(CC(=O)N2CC3CCC(CC3)C2)c2ccccc21 (racemic)
164 to 166 °C | Cc1cccc(NC(=O)NC2N=C(CC3CCCCC3)c3ccccc3N(CC(=O)N3CC4CCC(CC4)C3)C2=O)c1 (racemic)
190.2 to 196.2 °C | Cc1cccc(NC(=O)NC2N=C(c3ccccc3F)c3cccc(C)c3N(CC(=O)c3ccccc3C)C2=O)c1 (racemic)
183.3 to 186.8 °C | Cc1cccc(NC(=O)NC2N=C(c3ccccc3F)c3cccc(C(C)C)c3N(CC(=O)N3CC4CCC(CC4)C3)C2=O)c1 (racemic)
123 to 126 °C | Cc1cccc(NC(=O)NC2N=C(C(C)C)c3ccccc3N(CC(=O)N3CC4CCC(CC4)C3)C2=O)c1 (racemic)
169.6 to 170.7 °C | COc1cccc(NC(=O)NC2N=C(C)c3cccc(C)c3N(CC(=O)N3CC4CCC(CC4)C3)C2=O)c1 (racemic)
130.1 to 133 °C | CCC1=NC(NC(=O)Nc2cccc(C)c2)C(=O)N(CC(=O)N2CC3CCC(CC3)C2)c2c(C)cccc21 (racemic)
133 to 134.5 °C | CC(=O)OCC1=NC(NC(=O)Nc2cccc(C)c2)C(=O)N(CC(=O)N2CC3CCC(CC3)C2)c2c(C)cccc21 (racemic)
225 to 229 °C | CC1=NC(NC(=O)Nc2cccc(C)c2)C(=O)N(Cc2ncccc2C)c2ccccc21 (racemic) [8(1), N-[(3RS)-2,3-dihydro-5-methyl-1-(3-methylpyridin-2-yl)methyl-2-oxo-1H-1,4-benzodiazepin-3-yl]-N′-(3-methylphenyl)urea]
215 to 219 °C | CC(=O)c1sccc1CN1C(=O)C(NC(=O)Nc2cccc(C)c2)N=C(C)c2ccccc21 (racemic) [8(3), N-[(3RS)-1-(2-acetylthiophen-3-yl)methyl-2,3-dihydro-5-methyl-2-oxo-1H-1,4-benzodiazepin-3-yl]-N′-(3-methylphenyl)urea]
151 to 154 °C | Cc1cccc(NC(=O)NC2N=C(CCC(C)C)c3ccccc3N(Cc3ncccc3C)C2=O)c1 (racemic) [9(1), N-[(3RS)-2,3-dihydro-5-(3-methylbutyl)-1-(3-methylpyridin-2-yl)methyl-2-oxo-1H-1,4-benzodiazepin-3-yl]-N′-(3-methylphenyl)urea]
190 to 195 °C | CC(=O)c1sccc1CN1C(=O)C(NC(=O)Nc2cccc(C)c2)N=C(CCC(C)C)c2ccccc21 (racemic) [9(2), N-[(3RS)-1-(2-acetylthiophen-3-yl)methyl-2,3-dihydro-5-(3-methylbutyl)-2-oxo-1H-1,4-benzodiazepin-3-yl]-N′-(3-methylphenyl)urea]
214.5 to 217.3 °C | CC1=NC(NC(=O)Nc2cccc(C)c2)C(=O)N(CC(=O)N2CCC(N3CCCCC3)CC2)c2c(C)cccc21 (racemic) [48-3(1), N-[(3RS)-1-[4-(Piperidino)piperidin-1-yl]carbonylmethyl-5,9-dimethyl-2,3-dihydro-2-oxo-1H-1,4-benzodiazepin-3-yl]-N′-(3-methylphenyl)urea]
163.2 to 164.9 °C | CC1=NC(NC(=O)Nc2cccc(C)c2)C(=O)N(CC(=O)N2CCC(O)(c3ccccc3)CC2)c2c(C)cccc21 (racemic) [48-3(6), N-[(3RS)-1-(4-Hydroxy-4-phenylpiperidin-1-yl)carbonylmethyl-5,9-dimethyl-2,3-dihydro-2-oxo-1H-1,4-benzodiazepin-3-yl]-N′-(3-methylphenyl)urea]
